Experimental findings from a melting point compilation (Tetko et al.; mined from patent text by program, amines drawn as free bases though some values may be those of a salt) are described below.

The structures appear in SMILES notation.

`COc1ccc2snnc2c1S(=O)(=O)Cl`: the melting point (usually the temperature of the solid-liquid transition) lay in the range of 131 to 134 °C.

`Fc1cc(F)cc(Cc2cccnc2S)c1` yielded a melting point of 195 to 197 °C.

`CCCn1nc2c(N)nc3ccccc3c2c1CCNS(C)(=O)=O` had a melting point of 187 to 188 °C. The figure for `CC(C)(C)CC(=O)Nc1ccc([N+](=O)[O-])cc1` is 192 to 194 °C; for `COC(=O)c1cc(O)c(O)c(OC)c1` it is 110 to 111 °C; for `O=C(Nc1nc(C(F)(F)F)c(Cl)s1)c1ccc(Cl)c([N+](=O)[O-])c1` it is 183 to 184 °C. The figure for `CCCCCc1nc(NC(=N)N)sc1-c1cccc([N+](=O)[O-])c1` is 135 to 137 °C.

In turn, `COc1cc(OCC2CCCO2)ccc1/C=C/c1cc(/C=C/c2ccc3cc[nH]c3c2)n[nH]1` (configuration not stated) displayed a melting point of 218 to 220 °C. The figure for `CC(C)(C)COc1ccc(NC(=O)c2cnn(CC(F)(F)F)c2)cc1C#N` is 159 to 160 °C. In the case of `CCn1cc(CN(C(=O)C2CCCc3cc(OC)ccc32)c2ccc(C(C)C)cc2)cn1` (configuration not stated), the melting point lay in the range of 111 to 113 °C. With `COc1cc(NCCCO)c([N+](=O)[O-])cc1O` the figure was 144 °C; with `N#Cc1nn(-c2c(Cl)cc(C(F)(F)F)cc2Cl)c(C(O)C(F)(F)F)c1SC(F)(F)F` (configuration not stated), 106 °C; with `Nc1c(Br)cc(S(N)(=O)=O)cc1C(F)(F)F`, 248 to 252 °C.

`CN(C)c1nc(-c2ccc3c(c2)OCO3)c2cc3c(cc2n1)OCO3` returned a melting point of 200 to 206 °C. With `Cc1c(CC(=O)O)c2cc(O)ccc2n1C(=O)c1ccc(Cl)c(Cl)c1` the figure was 177 to 179 °C; with `O=C1NCCCN1N=Cc1ccccc1`, 190 °C; with `O=C(c1cccnc1)N1CCC(c2ccc(Br)cc2)=N1`, 117 to 119 °C. `Cc1cccc(NC(=O)NCC(=O)N2[C@@H](c3ccccc3F)SC[C@H]2C(=O)OC(C)(C)C)c1` yielded a melting point of 107 °C. With `Cc1ccc2c(c1)Sc1ccc(Cl)cc1CC2N1CCN(CCN2CCOC2=O)CC1` (configuration not stated) the figure was 161 to 163 °C; with `CCOC(=O)NC(=S)SCc1ccc(Cl)cc1`, 80 °C.

As for `O=Cc1coc2ccc(OCc3ccccc3)cc2c1=O`, the melting point is 163 to 166 °C. Consider `O=C(OCC1CC1)c1ncn2c1C1C=CCN1C(=O)c1c(Cl)cccc1-2` (configuration not stated), for which the melting point was in the range of 189 to 190 °C. The figure for `CCC(C)(C)c1cc(-c2ccc(F)c(C=C3SC(N4CCOCC4)=NC3=O)c2)ccc1O` is 246 to 247 °C; for `FC(F)(F)Oc1ccc(C=CC(C=Cc2ccc(OC(F)(F)F)cc2)=NNC2=NCCCCN2)cc1` it is 184 to 186 °C.

`COC(=O)[C@H](CO)NC(=O)[C@@H]1CCCN1C(=O)OCc1ccccc1` yielded a melting point of 97 to 100 °C.

`O=C(Nc1cccc(-c2ccnc3c(C(=O)c4cccs4)cnn23)c1)c1ccccc1` came in with a melting point of 211 to 213 °C.

Turning to `CC(=O)C1CCC2C3CCC4CC(O)C(C)CC4(C)C3C(=O)CC12C` (configuration not stated), the melting point is 142 to 146 °C. With `COc1cc(Cc2cnc(N)nc2N)cc(Br)c1OC` the figure was 204 to 205 °C; with `NCCNc1cc(NCCO)c([N+](=O)[O-])c(NCCO)c1`, 220 °C. In turn, `O=C1SC(CCCC#Cc2ccc(Cl)cc2)(S(=O)(=O)c2ccc(I)cc2)C(=O)N1Cc1ccc([N+](=O)[O-])cc1` (configuration not stated) gave a melting point of 172 to 175 °C. The figure for `O=c1[nH]c2cc(Cl)c(Cl)cc2[n+]([O-])c1-c1ccc(O)cc1` is 276 to 278 °C; for `O=c1[nH]c2ccccc2c(=O)c(Cc2ccccc2)c1O` it is 199 to 200 °C; for `O=C(Nc1ccnnc1)NC1CCCCCC1` it is 226 to 228 °C. The figure for `CCOc1nc(NC(C)C)c2cscc2n1` is 155 to 156 °C; for `N#Cc1ccccc1Cn1nnc2cc3c(cc2c1=O)OC1CCCN1C3=O` (configuration not stated) it is 257 to 260 °C. With `OC1(c2ccc(Cl)cc2)CCN(Cc2c[nH]c3ccccc23)CC1` the figure was 213 to 214 °C; with `c1ccc(-c2ncnn2-c2ccccc2)cc1`, 85 to 87 °C; with `COc1ccccc1CNC1CCN(C2CCN(C(=O)c3cc(C)cc(C)c3)C(Cc3ccccc3)C2)CC1` (configuration not stated), 71.2 °C. `Cc1nc(-n2ccc(OCc3cccnc3)cc2=O)sc1C(=O)NCc1ccccc1` yielded a melting point of 214 to 216 °C. The figure for `CC1=C2C(Br)CC3C4CCCC4(C)CCC3C2(C)CCC1=O` (configuration not stated) is 124 to 125 °C; for `Cc1ccc(C(=O)c2ccc([N+](=O)[O-])cc2)cc1` it is 122 to 123 °C.

Regarding `CNc1nn2c(N)nnc2c2c1CCCC2`, the melting point lay in the range of 295 to 297 °C.

As to `Brc1ccc2c(ccc3cc(Br)ccc32)c1`, the melting point is 163 to 166 °C. The figure for `COc1cc2c(cc1Nc1ncc(Cl)c(Nc3ccccc3S(=O)(=O)N3CCC(O)C3)n1)CCNC(=O)C2` (configuration not stated) is 86 to 97 °C. `O=c1oc2cccnc2n1CCN1CCN(c2cccc(C(F)(F)F)c2)CC1` registered a melting point of 92 to 93 °C. Consider `O=C1CN(c2ccc(I)cc2)S(=O)(=O)N1`, for which the melting point lay within 191 to 193 °C. With `Cc1cc(C(=O)NCc2cccc([N+](=O)[O-])c2)c(OCC(=O)O)cc1F` the figure was 177 to 179 °C; with `c1cn(CCCc2ccc(OCc3coc(-c4ccc(OCc5ccc6c(c5)OCO6)cc4)n3)cc2)cn1`, 124 to 125 °C. With `O=Cc1ccn(-c2cc3c(cc2C(F)(F)F)[nH]c(=O)c(=O)n3CC(=O)O)c1` the figure was > 250 °C; with `Cc1c(SCCN2CCOCC2)ccnc1CSc1nc2ccccc2n1CCO`, 141 to 143 °C; with `COc1cc(NC(=O)Nc2ccc(C3CCN(C(=O)Nc4ccc(OCCO)cc4Cl)CC3)cc2)cc(OC)c1`, 101 to 105 °C. `CC1(O)c2ccccc2C(C)(O)c2ccccc21` (configuration not stated): the melting point lay in the range of 178 to 179 °C. The figure for `Clc1ncc(OCc2ccsc2)cn1` is 73 to 76 °C; for `COc1ccc(-n2nnnc2C(F)(F)F)cc1CN[C@H]1CCN(C(=O)CNC(C)=O)C[C@H]1c1ccccc1` it is 112 to 115 °C; for `Nc1ccc([N+](=O)[O-])c(NC(=O)c2ccccc2)c1` it is 203 to 207 °C. With `NS(=O)(=O)c1ccc(C(=O)Nc2cn3cc(Cl)ccc3n2)cc1` the figure was > 320 °C; with `CC(=O)N(C(C)=O)c1ncc(C#Cc2cnn3c(C(F)(F)F)cc(-c4ccc(C(F)(F)F)cc4)nc23)cn1`, 253 to 254 °C; with `O=c1cc(C2CCCCC2)oc2ccc(OCCCCCN3CCC(O)CC3)cc12`, 85 to 86 °C. With `CSc1nnc(-c2ccc3ncn(-c4ccc(OC(F)F)cc4)c3c2)o1` the figure was 202 to 203 °C; with `COC(=O)Cc1nc(-c2ccc(Cl)cc2)oc1Oc1cccc([N+](=O)[O-])c1`, 97 to 99 °C. `Cc1ccsc1C(O)CCN(C)C` (configuration not stated): the melting point fell in the range of 41.5 to 42.5 °C.

`COc1cc(Nc2nccc(-c3ccc(NCCO)nc3)n2)cc(OC)c1OC` came in with a melting point of 123 °C. `O=C(Nc1ccc(-n2nc(C(F)(F)F)cc2C(F)(F)F)cc1)c1cncc(Br)c1`: the melting point was 155 to 157 °C. In the case of `CCOC(=O)C(=NOC)C1=CSCCN1C=O`, the melting point lay in the range of 94 to 96 °C.

Turning to `COC(=O)c1ccc(CO)cc1O`, the melting point was 77 to 78 °C. The figure for `CN1CCN(CCCNC(=O)CN2CCCC2=O)CC1` is 93 °C. The figure for `O=C(O)Cc1cccc2c(=O)cc(-c3ccc(F)c(F)c3)oc12` is 145 to 147 °C; for `Cc1ccc(NC(=O)N(C)C(c2cnc(C(F)F)nc2Cl)C(C)C)cc1` (configuration not stated) it is 135 to 137 °C; for `COc1cc2ccn(C(=O)c3ccc(-c4ccccc4)c(C)c3)c2cc1OCCN(C)C` it is 152 to 154 °C. The figure for `CCCNC(=O)N1c2ccc(S(=O)(=O)n3cc(-c4ccccc4)[nH]c3=O)cc2CC1C` (configuration not stated) is 138 °C; for `Cc1cc2c(nc1C(O)c1cccnc1)CCCCC2` (configuration not stated) it is 124 to 126 °C; for `Cc1c(CN2CCc3c(c4cccc(Br)c4n3C)C2=O)ncn1S(=O)(=O)N(C)C` it is 182 to 185 °C.

For `O=C1NCCc2ccc(OCCCCN3CCN(c4cccc5c4OCCC5)CC3)nc2N1`, the melting point was in the range of 154 to 156 °C.

In turn, `CC(=NOc1cccc(C(F)(F)F)c1)c1cc(Cl)ccc1NS(=O)(=O)C(F)(F)F` came in with a melting point of 63 to 64 °C.

For the compound `CC(=O)NC[C@H]1CN(c2ccc(N3CCC(Cc4noc(-c5ccccc5)n4)CC3)c(F)c2)C(=O)O1`, the melting point is 144 to 146 °C. With `COCc1nc2cnc3ccccc3c2n1CC(C)(C)O` the figure was 145 to 148 °C; with `CCCCCCC(C(=O)N1CCC[C@H]1C(=O)O)n1cnc(NC(=O)c2ccccc2S(=O)(=O)O)c1` (some centres not stated), 190 to 195 °C; with `CC(C)(C)C(NC(=O)c1cc(Cl)cc(Cl)c1)Nc1c(Nc2cccnc2Cl)c(=O)c1=O` (configuration not stated), 233 to 234 °C. The figure for `O=C(O)c1cc2c3ccccc3n(-c3ccccc3)c2s1` is 206 to 207 °C. The figure for `Nc1ncnc2c1ncn2Cc1oc2ccccc2c(=O)c1-c1ccccc1F` is 202 to 205 °C; for `COc1cccc([C@H]2O[C@H](CC(=O)Nc3ccc(OCCCc4ccccc4)c(CCC(=O)O)c3)C(=O)N(CC(C)(C)CO)c3ccc(Cl)cc32)c1OC` it is 147 to 149 °C. In turn, `COc1cc(F)nc(NC(=O)NS(=O)(=O)c2ccccc2OS(C)(=O)=O)n1` yielded a melting point of 168 to 169 °C. The figure for `Cc1c(Cc2ccc(Cl)cc2)c(=O)oc2cc(O)cc(O)c12` is 270 to 278 °C. The figure for `O=c1c(N2CCNCC2)nc2ccccc2n1-c1ccccc1Cl` is 135 to 137 °C; for `O=[N+]([O-])c1cc(NCc2c(F)c(F)c(C(F)(F)F)c(F)c2F)ccc1O` it is 126 to 128 °C; for `CCOC(=O)Cc1ccc(NCc2cc(Br)ccc2OCc2ccccc2)cc1` it is 73 °C. The figure for `COc1ccc2ccc(N3C(=O)C4=C(SCCO4)C3=O)nc2n1` is 255 °C.
